# Test results from the supplement of paper PMC3974653.
# Structures can show the parent of a compound that is named as a salt.
# System: MTT (mouse pheochromocytoma)
# Assay: IC50 of cell viability (ATP content)
# Details: (24 or 48 h)
# Method in brief: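 MTT mouse pheochromocytoma cells (5 µl of 200,000 cells/ml per well, white 1536-well plates, DMEM with 5% FBS and 1% horse serum) were cultured overnight at 37°C, 5% CO2. They then received 23 nl library compound in DMSO by pintool at 8 concentrations (final 0.5 nM to 46 µM) for 24 or 48 hrs. CellTiter-Glo ATP luminescence was read after 15 minutes. Signals were normalised to positive-control (100% inhibition) and DMSO (0%) wells, and IC50 came from a four-parameter logistic fit.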
row,SMILES,IC50 of cell viability
1,COc1cc(C(=O)N2CCCCCCC2)cc(OC)c1OC [TROCIMINUM],> 46 µM
2,NC(CO)(CO)CO [TROMETHAMINE],> 46 µM
3,"Cc1cc(C)cc(C(=O)OC2CC3CCC(C2)N3C)c1 (centres undefined) [TROPANYL 3,5-DIMETHYLBENZOATE]",> 46 µM
4,CCN(Cc1ccncc1)C(=O)C(CO)c1ccccc1 (centres undefined) [TROPICAMIDE],> 46 µM
5,CN1C2CCC1CC(OC(=O)c1c[nH]c3ccccc13)C2 (centres undefined) [TROPISETRON],> 46 µM
6,O=C(O[C@H]1C[C@H]2CC[C@@H](C1)[N+]21CCCC1)C(O)(c1ccccc1)c1ccccc1 [TROSPIUM CHLORIDE],> 46 µM
7,NC1C2CN(CC12)C3=NC4=C(C=C3F)C(=O)C(=C/N4C5=CC=C(F)C=C5F)\C(O)=O (centres undefined) [TROVAFLOXACIN MESYLATE],> 46 µM
8,NC/1=N/C(=O)N(/C=C1)[C@H]2CO[C@H](CO)O2 [TROXACITABINE (Troxatyl)],> 46 µM
9,CC1OC(OCC2OC(OC/3=C(/OC4=C(C(=CC(=C4)OCCO)O)C3=O)C5=CC=C(OCCO)C(=C5)OCCO)C(O)C(O)C2O)[C@@H](O)C(O)C1O (some centres undefined) [TROXERUTIN],> 46 µM
10,COc1cc(C(=O)NC2CCCNC2)cc(OC)c1OC (centres undefined) [TROXIPIDE],> 46 µM
11,CCCCCC(C)N.O=[S+]([O-])(O)O (centres undefined) [TUAMINOHEPTANE SULFATE],> 46 µM
12,CC(C)(C)NCC(O)c1ccccc1Cl.Cl (centres undefined) [TULOBUTEROL],> 46 µM
13,CCC1OC(=O)CC(O)C(C)[C@@H](O[C@@H]2OC(C)[C@H](O[C@@H]3C[C@@](C)(O)C(O)C(C)O3)C(N(C)C)C2O)[C@H](CC=O)CC(C)C(=O)/C=C/C(C)=C/[C@@H]1COC1OC(C)C(O)C(OC)[C@@H]1OC (some centres undefined) [TYLOSIN TARTRATE],> 46 µM
14,CCCC(=O)Nc1c(I)cc(I)c(C[C@H](CC)C(=O)O)c1I [TYROPANOATE SODIUM],> 46 µM
15,N[C@@H](Cc1ccc(O)cc1)C(=O)O [TYROSINE],> 46 µM
16,CC1(C)S[C@H]2[C@H](NC(=O)[C@@H](N)C3=CC=CC=C3)C(=O)[N@]2[C@H]1C(=O)O[C@@H]4OC(=O)C5=C4C=CC=C5 [Talampicillin hydrochloride],> 46 µM
17,O=C1[C@@H]2[C@H]3CC[C@H](C3)[C@@H]2C(=O)N1CCCCN1CCN(c2ncccn2)CC1 [Tandospirone],> 46 µM

row,SMILES,IC50 of cell viability
1,COc1cc2c(N3CCN(C(=O)Nc4ccc(OC(C)C)cc4)CC3)ncnc2cc1OCCCN1CCCCC1 [Tandutinib],> 46 µM
2,O=C([O-])c1cccc(/C=C2/C[C@@H]3[C@@H](/C=C/[C@@H](O)C4CCCCC4)[C@H](O)C[C@@H]3O2)c1 [Taprostene sodium salt],> 46 µM
3,O=C([O-])C1=NN(c2ccc(S(=O)(=O)[O-])cc2)C(=O)/C1=N\Nc1ccc(S(=O)(=O)[O-])cc1 [Tartrazine],> 46 µM
4,CCCCOC(=O)C(=O)Nc1cccc(-c2nnn[nH]2)c1 [Tazanolast],> 46 µM
5,CC1(Cn2ccnn2)[C@H](C(=O)O)N2C(=O)C[C@H]2[S+]1(=O)[O-] (some centres undefined) [Tazobactam sodium],> 46 µM
6,CC1CN(CCN1)C2=CC3=C(C=C2F)C(=O)\C(=C/N3C4=CC=C(F)C=C4F)C(O)=O (centres undefined) [Temafloxacin],> 46 µM
7,CN1C(=O)C(O)N=C(c2ccccc2)c2cc(Cl)ccc21 (centres undefined) [Temazepam],> 46 µM
8,Oc1cccc(-c2c3nc(c(-c4cccc(O)c4)c4ccc([nH]4)c(-c4cccc(O)c4)c4nc(c(-c5cccc(O)c5)c5ccc2[nH]5)CC4)C=C3)c1 [Temoporfin] [listing 1 of 2 here],> 46 µM
9,Oc1cccc(-c2c3nc(c(-c4cccc(O)c4)c4ccc([nH]4)c(-c4cccc(O)c4)c4nc(c(-c5cccc(O)c5)c5ccc2[nH]5)CC4)C=C3)c1 [Temoporfin] [listing 2 of 2 here],> 46 µM
10,O=C1/C(=C\c2cccs2)CCC/C1=C/c1cccs1 [Tenilidona],> 46 µM
11,O=C(Nc1ncc([N+](=O)[O-])s1)c1cccs1 [Tenonitrozol],> 46 µM
12,CN1\C(=C(\O)C2=C(C=CS2)[S+]1([O-])=O)C(=O)NC3=CC=CC=N3 [Tenoxicam],> 46 µM
13,COc1cc2nc(N3CCN(C(=O)[C@H]4CCCO4)CC3)nc(N)c2cc1OC [Terazosin hydrochloride],> 46 µM
14,CN(C/C=C/C#CC(C)(C)C)Cc1cccc2ccccc12 [Terbinafine],> 46 µM
15,CC(C)(C)NC[C@H](O)c1cc(O)cc(O)c1 [Terbutaline hemisulfate],> 46 µM
16,CC(C)N1CCN(c2ccc(OC[C@@H]3CO[C@@](Cn4cncn4)(c4ccc(Cl)cc4Cl)O3)cc2)CC1 [Terconazole],> 46 µM
17,CC(C)(C)c1ccc(C(O)CCCN2CCC(C(O)(c3ccccc3)c3ccccc3)CC2)cc1 (centres undefined) [Terfenadine],> 46 µM
